Laboratory results reported in patent US8778871B2 (Takeda Pharmaceutical Company Limited, priority 2004, dated 2014).
Non-standard residues stand in square brackets, D forms with d. *: point of attachment. NMeW = CN[C@@H](Cc1c[nH]c2ccccc12)C(=O)O; Phe(4-F) = N[C@@H](Cc1ccc(F)cc1)C(=O)O; 2Nal = N[C@@H](Cc1ccc2ccccc2c1)C(=O)O; Arg(Me) = CNC(=N)NCCC[C@H](N)C(=O)O; dNMeY = CN[C@H](Cc1ccc(O)cc1)C(=O)O; Tic = O=C(O)[C@@H]1Cc2ccccc2CN1; 2Thi = N[C@@H](Cc1cccs1)C(=O)O; Cha = N[C@@H](CC1CCCCC1)C(=O)O; pGlu = O=C1CC[C@@H](C(=O)O)N1; Hexanoyl = CCCCCC(=O)*; Propionyl = CCC(=O)*; azaGly = NNC(=O)O; For = O=C*

Experiments:
[1] = target: T1, hOT7T175 (Homo sapiens, UniProt Q969F8, L364H); type: cell-based; conditions: hOT7T175/CHO, FLIPR, evaluation for 40 seconds after initiation of the reaction
T1 construct: expressed in transfected cells
T1 sequence (Q969F8 whole entry L364H): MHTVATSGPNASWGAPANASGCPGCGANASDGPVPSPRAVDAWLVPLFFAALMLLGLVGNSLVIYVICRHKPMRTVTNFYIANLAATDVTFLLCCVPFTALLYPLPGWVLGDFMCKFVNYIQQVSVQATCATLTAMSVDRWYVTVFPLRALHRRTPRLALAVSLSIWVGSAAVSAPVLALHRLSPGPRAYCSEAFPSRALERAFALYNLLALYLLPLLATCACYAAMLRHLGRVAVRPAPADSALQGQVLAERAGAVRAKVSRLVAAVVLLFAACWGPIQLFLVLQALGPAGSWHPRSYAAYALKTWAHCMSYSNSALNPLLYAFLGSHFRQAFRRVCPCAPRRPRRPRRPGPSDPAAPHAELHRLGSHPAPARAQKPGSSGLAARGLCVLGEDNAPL
Protocol: The intracellular Ca ion level-increasing activity was measured using FLIPR as in TEST EXAMPLE 2.

[2] = Action of reducing testosterone level in blood in mature male rat (1 mM peptide in 50% DMSO, ALZET osmotic pump); type: in vivo; conditions: 1 mM peptide in 50% DMSO aqueous solution, ALZET osmotic pump s.c., six days
Protocol: The peptide was encapsulated in five ALZET osmotic pump (Model 2001, 0.2 ml of volume, releasing rate 0.001 ml/hr, DURECT Corporation). The ALZET pumps encapsulated with the peptide solution were implanted to dorsal subcutaneous of five male CD (SD) IGS rat at nine weeks age (Charles River Japan, Inc.) anesthesized with ether for one pump to one rat. Separately, for negative controls, the ALZET osmotic pumps encapsulated with distilled water were implanted to five male CD (SD) IGS rat (Charles River Japan, Inc.) The rats were bred for six days under the normal conditions. After weighing, blood was collected by decapitation. To 1 ml of blood, 0.03 ml of aprotinin (Trasylol, Byer) solution containing 0.1 g/ml EDTA 2Na was added. The plasma was isolated by centrifugation at 1,800×g for 25 minutes and collected. The thus obtained plasma, 0.05 ml was effected by radioimmunoassay. (DPC Total Testosterone Kit, Diagnostic Products Corporation) to measure testosterone level in blood of each rat. The value beneath measuring limit of radioimmunoassay (0.04 ng/ml as concentration of plasma) was treated as zero. The mean values for testosterone level of five rats, to which the peptide was given, was calculated and the relative value (percentage) for the mean values of testosterone level of five rats, to which distilled watrer was given, was estimated.

Substance: Hexanoyl-D-Trp-Asn-Thr-Phe-AzaGly-Leu-Arg(Me)-Trp-NH2 (Hexanoyl-[dW]NTF[azaGly]L[Arg(Me)]W-NH2; SMILES CCCCCC(=O)N[C@H](Cc1c[nH]c2ccccc12)C(=O)N[C@@H](CC(N)=O)C(=O)N[C@H](C(=O)N[C@@H](Cc1ccccc1)C(=O)NNC(=O)N[C@@H](CC(C)C)C(=O)N[C@@H](CCCNC(=N)NC)C(=O)N[C@@H](Cc1c[nH]c2ccccc12)C(N)=O)[C@@H](C)O) [Compound No. 667]
- Specific Act. (EC50/MS10 EC50) [1]: 1.4
- Testosterone level in Blood [2]: 2%

Substance: Ac-[dY]WNTF[azaGly]L[Arg(Me)]W-NH2 [Compound No. 623]
- Specific Act. (EC50/MS10 EC50) [1]: 0.6
- Testosterone level in Blood [2]: 2%

Substance: Ac-[dY][dW]NTF[azaGly]V[Arg(Me)]W-NH2 [Compound No. 642]
- Specific Act. (EC50/MS10 EC50) [1]: 3.7
- Testosterone level in Blood [2]: 2%

Substance: D-Tyr-D-Pya(4)-Asn-Ser-Phe-AzaGly-Leu-Arg(Me)-PheΨ(CSNH)NH2 [Compound No. 548]
- Specific Act. (EC50/MS10 EC50) [1]: 1.7
- Testosterone level in Blood [2]: 18%

Substance: Ac-[dY][dW]NTF[azaGly]L[Arg(Me)][Phe(4-F)]-NH2 [Compound No. 592]
- Specific Act. (EC50/MS10 EC50) [1]: 1.1
- Testosterone level in Blood [2]: 2%

Substance: Ac-[dY][dF]NTF[azaGly]L[Arg(Me)]W-NH2 [Compound No. 627]
- Specific Act. (EC50/MS10 EC50) [1]: 1.6
- Testosterone level in Blood [2]: 2%

Substance: Ac-[dF][dW]NTF[azaGly]L[Arg(Me)]W-NH2 [Compound No. 618]
- Specific Act. (EC50/MS10 EC50) [1]: 1.6
- Testosterone level in Blood [2]: 2%

Substance: pGlu-D-Tyr-D-Trp-Asn-Thr-Phe-AzaGly-Leu-Arg(Me)-Trp-NH2 ([pGlu][dY][dW]NTF[azaGly]L[Arg(Me)]W-NH2; SMILES CNC(=N)NCCC[C@H](NC(=O)[C@H](CC(C)C)NC(=O)NNC(=O)[C@H](Cc1ccccc1)NC(=O)[C@@H](NC(=O)[C@H](CC(N)=O)NC(=O)[C@@H](Cc1c[nH]c2ccccc12)NC(=O)[C@@H](Cc1ccc(O)cc1)NC(=O)[C@@H]1CCC(=O)N1)[C@@H](C)O)C(=O)N[C@@H](Cc1c[nH]c2ccccc12)C(N)=O) [Compound No. 652]
- Specific Act. (EC50/MS10 EC50) [1]: 0.9
- Testosterone level in Blood [2]: 2%

Substance: Ac-D-Tyr-Pro-Asn-Thr-Phe-AzaGly-Leu-Arg(Me)-Trp-NH2 (Ac-[dY]PNTF[azaGly]L[Arg(Me)]W-NH2; SMILES CNC(=N)NCCC[C@H](NC(=O)[C@H](CC(C)C)NC(=O)NNC(=O)[C@H](Cc1ccccc1)NC(=O)[C@@H](NC(=O)[C@H](CC(N)=O)NC(=O)[C@@H]1CCCN1C(=O)[C@@H](Cc1ccc(O)cc1)NC(C)=O)[C@@H](C)O)C(=O)N[C@@H](Cc1c[nH]c2ccccc12)C(N)=O) [Compound No. 657]
- Specific Act. (EC50/MS10 EC50) [1]: 1.1
- Testosterone level in Blood [2]: 2%

Substance: Ac-[dNMeY][dW]NTF[azaGly]L[Arg(Me)]W-NH2 [Compound No. 602]
- Specific Act. (EC50/MS10 EC50) [1]: 2.4
- Testosterone level in Blood [2]: 2%

Substance: Ac-[dY][dW]NTF[azaGly]L[Arg(Me)][2Thi]-NH2 [Compound No. 590]
- Specific Act. (EC50/MS10 EC50) [1]: 1.4
- Testosterone level in Blood [2]: 2%

Substance: Ac-D-Tyr-D-Trp-Asn-Thr-Phe-AzaGly-Leu-Arg(Me2)sym-Trp-NH2 [Compound No. 608]
- Specific Act. (EC50/MS10 EC50) [1]: 2.2
- Testosterone level in Blood [2]: 2%

Substance: Ac-Tyr-Trp-Asn-Thr-Phe-AzaGly-Leu-Arg(Me)-Trp-NH2 (Ac-YWNTF[azaGly]L[Arg(Me)]W-NH2; SMILES CNC(=N)NCCC[C@H](NC(=O)[C@H](CC(C)C)NC(=O)NNC(=O)[C@H](Cc1ccccc1)NC(=O)[C@@H](NC(=O)[C@H](CC(N)=O)NC(=O)[C@H](Cc1c[nH]c2ccccc12)NC(=O)[C@H](Cc1ccc(O)cc1)NC(C)=O)[C@@H](C)O)C(=O)N[C@@H](Cc1c[nH]c2ccccc12)C(N)=O) [Compound No. 664]
- Specific Act. (EC50/MS10 EC50) [1]: 0.6
- Testosterone level in Blood [2]: 6%

Substance: Ac-[dY][dW]NTF[azaGly]L[Arg(Me)][2Nal]-NH2 [Compound No. 589]
- Specific Act. (EC50/MS10 EC50) [1]: 2.3
- Testosterone level in Blood [2]: 2%

Substance: Ac-[dY][dL]NTF[azaGly]L[Arg(Me)]W-NH2 [Compound No. 626]
- Specific Act. (EC50/MS10 EC50) [1]: 2.1
- Testosterone level in Blood [2]: 2%

Substance: Ac-D-Tyr-NMeTrp-Asn-Thr-Phe-AzaGly-Leu-Arg(Me)-Trp-NH2 (Ac-[dY][NMeW]NTF[azaGly]L[Arg(Me)]W-NH2; SMILES CNC(=N)NCCC[C@H](NC(=O)[C@H](CC(C)C)NC(=O)NNC(=O)[C@H](Cc1ccccc1)NC(=O)[C@@H](NC(=O)[C@H](CC(N)=O)NC(=O)[C@H](Cc1c[nH]c2ccccc12)N(C)C(=O)[C@@H](Cc1ccc(O)cc1)NC(C)=O)[C@@H](C)O)C(=O)N[C@@H](Cc1c[nH]c2ccccc12)C(N)=O) [Compound No. 672]
- Specific Act. (EC50/MS10 EC50) [1]: 2.1
- Testosterone level in Blood [2]: 2%

Substance: Ac-[dY][dW]NTF[azaGly]L[Arg(Me)][Cha]-NH2 [Compound No. 595]
- Specific Act. (EC50/MS10 EC50) [1]: 11.4
- Testosterone level in Blood [2]: 3%

Substance: 3-Pyridinepropionyl-D-Trp-Asn-Thr-Phe-AzaGly-Leu-Arg(Me)-Trp-NH2 ({3‑Pyridinepropionyl}-[dW]NTF[azaGly]L[Arg(Me)]W-NH2) [Compound No. 670]
- Specific Act. (EC50/MS10 EC50) [1]: 0.9
- Testosterone level in Blood [2]: 2%

Substance: Ac-G[dY][dW]NTF[azaGly]L[Arg(Me)]W-NH2 [Compound No. 649]
- Specific Act. (EC50/MS10 EC50) [1]: 1
- Testosterone level in Blood [2]: 2%

Substance: Ac-[dY][dE]NTF[azaGly]L[Arg(Me)]W-NH2 [Compound No. 630]
- Specific Act. (EC50/MS10 EC50) [1]: 4.2
- Testosterone level in Blood [2]: 2%

Substance: Ac-[dA][dW]NTF[azaGly]L[Arg(Me)]W-NH2 [Compound No. 616]
- Specific Act. (EC50/MS10 EC50) [1]: 1.1
- Testosterone level in Blood [2]: 2%

Substance: Ac-D-Trp-Asn-Thr-Phe-AzaGly-Leu-Arg(Me)-Trp-NH2 (Ac-[dW]NTF[azaGly]L[Arg(Me)]W-NH2; SMILES CNC(=N)NCCC[C@H](NC(=O)[C@H](CC(C)C)NC(=O)NNC(=O)[C@H](Cc1ccccc1)NC(=O)[C@@H](NC(=O)[C@H](CC(N)=O)NC(=O)[C@@H](Cc1c[nH]c2ccccc12)NC(C)=O)[C@@H](C)O)C(=O)N[C@@H](Cc1c[nH]c2ccccc12)C(N)=O) [Compound No. 666]
- Specific Act. (EC50/MS10 EC50) [1]: 1.1
- Testosterone level in Blood [2]: 2%

Substance: Ac-[dY][dK]NTF[azaGly]L[Arg(Me)]W-NH2 [Compound No. 629]
- Specific Act. (EC50/MS10 EC50) [1]: 3.4
- Testosterone level in Blood [2]: 2%

Substance: Ac-D-Tyr-D-Tyr-D-Trp-Asn-Thr-Phe-AzaGly-Leu-Arg(Me)-Trp-NH2 (Ac-[dY][dY][dW]NTF[azaGly]L[Arg(Me)]W-NH2; SMILES CNC(=N)NCCC[C@H](NC(=O)[C@H](CC(C)C)NC(=O)NNC(=O)[C@H](Cc1ccccc1)NC(=O)[C@@H](NC(=O)[C@H](CC(N)=O)NC(=O)[C@@H](Cc1c[nH]c2ccccc12)NC(=O)[C@@H](Cc1ccc(O)cc1)NC(=O)[C@@H](Cc1ccc(O)cc1)NC(C)=O)[C@@H](C)O)C(=O)N[C@@H](Cc1c[nH]c2ccccc12)C(N)=O) [Compound No. 651]
- Specific Act. (EC50/MS10 EC50) [1]: 0.7
- Testosterone level in Blood [2]: 2%

Substance: Ac-D-Trp-D-Trp-Asn-Thr-Phe-AzaGly-Leu-Arg(Me)-Trp-NH2 (Ac-[dW][dW]NTF[azaGly]L[Arg(Me)]W-NH2; SMILES CNC(=N)NCCC[C@H](NC(=O)[C@H](CC(C)C)NC(=O)NNC(=O)[C@H](Cc1ccccc1)NC(=O)[C@@H](NC(=O)[C@H](CC(N)=O)NC(=O)[C@@H](Cc1c[nH]c2ccccc12)NC(=O)[C@@H](Cc1c[nH]c2ccccc12)NC(C)=O)[C@@H](C)O)C(=O)N[C@@H](Cc1c[nH]c2ccccc12)C(N)=O) [Compound No. 663]
- Specific Act. (EC50/MS10 EC50) [1]: 0.8
- Testosterone level in Blood [2]: 2%

Substance: Ac-[dY][dW]NTFGL[Arg(Me)]W-NH2 [Compound No. 598]
- Specific Act. (EC50/MS10 EC50) [1]: 0.3
- Testosterone level in Blood [2]: 2%

Substance: Ac-[dY][dW]NT[Phe(4-F)][azaGly]L[Arg(Me)]W-NH2 [Compound No. 637]
- Specific Act. (EC50/MS10 EC50) [1]: 0.8
- Testosterone level in Blood [2]: 2%

Substance: For-[dY][dW]NTF[azaGly]L[Arg(Me)]W-NH2 [Compound No. 612]
- Specific Act. (EC50/MS10 EC50) [1]: 0.8
- Testosterone level in Blood [2]: 2%

Substance: Ac-[dY][dW]NTF[azaGly]L[Arg(Me)]Y-NH2 [Compound No. 591]
- Specific Act. (EC50/MS10 EC50) [1]: 1.2
- Testosterone level in Blood [2]: 2%

Substance: Ac-[dY][Tic]NTF[azaGly]L[Arg(Me)]W-NH2 [Compound No. 662]
- Specific Act. (EC50/MS10 EC50) [1]: 0.7
- Testosterone level in Blood [2]: 2%

Substance: Propionyl-[dY][dW]NTF[azaGly]L[Arg(Me)]W-NH2 [Compound No. 613]
- Specific Act. (EC50/MS10 EC50) [1]: 0.4
- Testosterone level in Blood [2]: 2%

Substance: Ac-D-Tyr-D-Pya(4)-Asn-Thr-Phe(4F)-AzaGly-Leu-Arg(Me)-Trp-NH2 [Compound No. 638]
- Specific Act. (EC50/MS10 EC50) [1]: 1.7
- Testosterone level in Blood [2]: 2%
